target: T1, 5-hydroxytryptamine receptor 1A (Homo sapiens, UniProt P08908); assay: serotonin 1A receptor activation, dose response (AID 718); conditions: pH 7.4; 23 °C
T1 sequence (P08908 whole entry): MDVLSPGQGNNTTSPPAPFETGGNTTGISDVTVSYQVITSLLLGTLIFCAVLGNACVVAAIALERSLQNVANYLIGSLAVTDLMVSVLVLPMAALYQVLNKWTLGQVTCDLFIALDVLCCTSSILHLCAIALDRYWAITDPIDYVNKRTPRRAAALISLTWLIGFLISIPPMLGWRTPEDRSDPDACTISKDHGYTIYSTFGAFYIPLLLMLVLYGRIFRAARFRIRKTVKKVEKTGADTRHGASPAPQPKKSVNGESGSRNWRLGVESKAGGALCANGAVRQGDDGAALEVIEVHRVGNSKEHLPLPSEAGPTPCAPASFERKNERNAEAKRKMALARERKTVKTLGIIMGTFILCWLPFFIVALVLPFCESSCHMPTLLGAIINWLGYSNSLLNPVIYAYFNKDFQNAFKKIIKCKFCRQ

SMILES | EC50
CCOC(=O)C1C(C)=NC(=O)NC1c1ccc(OCC(=O)Nc2ccccc2)c(OC)c1 (stereo not drawn) [SMR000093032] | 50 µM
Cn1cc(C(Cc2ccccc2)N=O)c2ccccc21 (stereo not drawn) [1-(1-methyl-3-indolyl)-2-phenylethanone oxime] | 50 µM
CN1CCN(C(N=O)c2nonc2N)CC1 (stereo not drawn) | 50 µM

— BindingDB's records for doi:10.7270/Q2WW7G03 (The Scripps Research Institute Molecular Screening Center, 2007)
